Experimental findings from patent publication US8883793B2, “Tubulin inhibitors and methods of using the same” (Development Center for Biotechnology, priority 2010, dated 2014) are described below.

The subject of one assay is biotinylated tubulin. The assay can be described thus: Colchicine competitive-binding assay. The note with it: at 10 μM concentration, 3H-colchicine; for binding rate (%) (colchicine competitive-binding): left column pair of Table 7; for Inhibition rate (%) (colchicine competitive-binding): right column pair of Table 7.
The subject of the next assay is porcine brain tubulin. The assay can be described thus: Tubulin polymerization assay. It counts as biochemical. The conditions noted are these: at 10 μM concentration. How it is done:
In vitro tubulin polymerization assay was performed by using the Tubulin Polymerization Assay Kit (Cytoskeleton, Inc., Denver, Colo.) in a 96-well format, which used the polymerization of porcine brain tubulin in vitro in the presence of varying concentrations of the test compounds. Fluorescence measurements were obtained at 1-minute intervals over a 31-minute period. Fluorescent measurements were performed using excitation at 365 nm, and emission was measured at 440 nm using a Packard Fusion Alpha Microplate Analyzer. Data were analyzed as relative fluorescent units by GraphPad Prism 5 Demo.

Another assay has as its system KB cell. The assay can be described thus: MTS assay, growth inhibition of KB cells. It counts as cell-based. The conditions noted are these: Homo sapiens, at 10 μM concentration, incubated for 72 h, read-out: Inhibition rate (%) (growth inhibition rate of MTS assay). A digest of the protocol: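 KB cells were allowed 24 h to attach before a 72 h exposure to compound at 10 μM. Viability was measured by MTS/PMS reduction, with absorbance read at 490 nm after 3 h. Values are reported as percent growth inhibition.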

Another assay deals with A375. The assay can be described thus: MTS assay, A375. The format is cell-based. The note with it: Homo sapiens, A-375, 72 h, read-out: IC50 from MTS assay. On the procedure: (§1) MTS assay was performed in determining the growth inhibition of cancer cells. MTS ((3-(4,5-dimethylthiazol-2-yl)-5-(3-carboxymethoxyphenyl)-2-(4-sulfophenyl)-2H-tetrazolium)), in the presence of phenazine methosulfate (PMS) and reductases, produces a formazan product that has an absorbance maximum at 490-500 nm. MTS assays (and closely related MTT assay) are commonly used to measure cell viabilities or survivals.
(§2) Briefly, KB/Hela, NCI-H460, A375, Colo205, HCT-116, U937, MCF-7, MDA-MB-231, A549, H1975 cells were seeded into 96-well plate at 4000, 4000, 2000, 2000, 2000 cells/well. After 24 h for attachment, test compound was added into each well and incubated for 72 h. A total of 20 μl of MTS reaction reagent containing the MTS (Promega, Madison, Wis.) and PMS in a ratio of 20:1 was added into each well to react with dehydrogenase enzyme in survival cells. After 3 h, the absorbance at 490 nm was monitored using Emax precision microplate reader (Molecular Devices, Sunnyvale, Calif.).

For another assay, the system named is A549. The assay can be described thus: MTS assay, A549. It counts as cell-based. The note with it: Homo sapiens, 72 h, read-out: IC50 from MTS assay. On the procedure: as §1, §2
Another assay deals with H1975. The assay can be described thus: MTS assay, H1975. The note with it: Homo sapiens, NCI-H1975, 72 h, read-out: IC50 from MTS assay. It counts as cell-based. On the procedure:
as §1, §2

Another assay has as its system U937. Kind of assay: MTS assay, U937. It counts as cell-based. The note with it: Homo sapiens, U-937, 72 h, read-out: IC50 from MTS assay. On the procedure: as §1, §2
The test system of another assay is Colo205. The assay can be described thus: MTS assay, Colo205. The format is cell-based. The conditions noted are these: Homo sapiens, COLO 205, 72 h, read-out: IC50 from MTS assay. On the procedure: as §1, §2
The subject of another assay is MDA-MB-231. The assay can be described thus: MTS assay, MDA-MB-231. The format is cell-based. The note with it: Homo sapiens, 72 h, read-out: IC50 from MTS assay. On the procedure: as §1, §2

On to `COc1ccc(Cc2cnc(NC(=O)CCc3ccc(-c4ccccc4)cc3)s2)c(OC)c1OC` [Compound 55, 3-Biphenyl-4-yl-N-[5-(2,3,4-trimethoxy-benzyl)-thiazol-2-yl]-propionamide], for which the “binding rate (%) (colchicine competitive-binding)” value (from here on “binding rate (%)”) in the assay with biotinylated tubulin worked out at 68.8%. Besides, the “Inhibition rate (%) of tubulin polymerization” value with porcine brain tubulin is listed as 54.9%. In addition, the inhibition at 10 µM with KB cell was found to be 95.1%.
In the same order, the values of `COc1ccc(Sc2cnc(NC(=O)CCc3ccccc3)s2)cc1` [Compound 69, N-[5-(4-Methoxy-phenylsulfanyl)-thiazol-2-yl]-3-phenyl-propionamide] are 85.2%, 50.5% and 87.6%.
As to `COc1ccc(Sc2cnc(NC(=O)CCc3cccnc3)s2)cc1` [Compound 70, N-[5-(4-Methoxy-phenylsulfanyl)-thiazol-2-yl]-3-pyridin-3-yl-propionamide], the IC50 in the assay on A375 amounted to 0.0346 µM; with A549 it was 0.058 µM; in the assay with H1975 it was 0.141 µM; with U937, 0.0232 µM; in the assay on Colo205, 0.0682 µM; in the assay with MDA-MB-231 it was 0.182 µM. Moreover, the “binding rate (%)” value in the assay with biotinylated tubulin worked out at 92.9%. Further, in the assay on porcine brain tubulin, the “Inhibition rate (%) of tubulin polymerization” value was 59.6%. Moreover, the inhibition at 10 µM in the assay with KB cell was determined as 78.5%.
As to `COc1ccc(Sc2cnc(NC(=O)CCc3ccc(C)o3)s2)cc1` [Compound 71, N-[5-(4-Methoxy-phenylsulfanyl)-thiazol-2-yl]-3-(5-methyl-furan-2-yl)-propionamide], the “binding rate (%)” value in the assay on biotinylated tubulin stood at 86.0%. For the same molecule, in the assay on porcine brain tubulin, the “Inhibition rate (%) of tubulin polymerization” value came to 60.1%. For the same molecule, the inhibition at 10 µM in the assay on KB cell is 94.4%.
`Cc1ccc(CCC(=O)Nc2ccc(-n3ccnc3)cn2)o1` [Compound 77, N-(5-Imidazol-1-yl-pyridin-2-yl)-3-(5-methyl-furan-2-yl)-propionamide]: in the assay on biotinylated tubulin, the “Inhibition rate (%) (colchicine competitive-binding)” value is reported as 99.8%. Also, the “Inhibition rate (%) of tubulin polymerization” value in the assay on porcine brain tubulin was 60.8%. In the assay with KB cell, the inhibition at 10 µM was determined as 87.3%.
For `O=C(CCc1ccccc1)Nc1ccc(-n2ccc3ccccc32)cn1` [Compound 79, N-(5-Indol-1-yl-pyridin-2-yl)-3-phenyl-propionamide] the same measures were 90.0%, 53.2% and 73.7%.
For `COc1ccc(Sc2ccc(NC(=O)CCc3ccc(C)o3)nc2)cc1` [Compound 83, N-[5-(4-Methoxy-phenylsulfanyl)-pyridin-2-yl]-3-(5-methyl-furan-2-yl)-propionamide], the “Inhibition rate (%) (colchicine competitive-binding)” value in the assay with biotinylated tubulin is 91.9%. In addition, in the assay with porcine brain tubulin, the “Inhibition rate (%) of tubulin polymerization” value is reported as 64.7%. The inhibition at 10 µM with KB cell stood at 95.2%.
`COc1ccc(Sc2ccc(NC(=O)CCc3ccccc3)nc2)cc1` [Compound 84, N-[5-(4-Methoxy-phenylsulfanyl)-pyridin-2-yl]-3-phenyl-propionamide]: the “Inhibition rate (%) (colchicine competitive-binding)” value in the assay on biotinylated tubulin is on record as 88.0%. The “Inhibition rate (%) of tubulin polymerization” value in the assay with porcine brain tubulin was found to be 50.3%. Further, the inhibition at 10 µM in the assay with KB cell turned out to be 94.7%.
For `Cc1ccc(CCC(=O)Nc2ccc(SCc3ccccc3)cn2)o1` [Compound 85, N-(5-Benzylsulfanyl-pyridin-2-yl)-3-(5-methyl-furan-2-yl)-propionamide] the same measures were 92.6%, 54.0% and 76.8%.
In the same order, the values of `Cc1ccc(CCC(=O)Nc2ncc(-c3ccccc3)cn2)o1` [Compound 92, 3-(5-Methyl-furan-2-yl)-N-(5-phenyl-pyrimidin-2-yl)-propionamide] are 94.7%, 74.0% and 97.1%.
As to `O=C(CCc1ccccc1)Nc1ncc(-c2ccccc2)cn1` [Compound 94, 3-Phenyl-N-(5-phenyl-pyrimidin-2-yl)-propionamide], in the assay with biotinylated tubulin, the “Inhibition rate (%) (colchicine competitive-binding)” value is reported as 82.9%. Besides, the “Inhibition rate (%) of tubulin polymerization” value in the assay with porcine brain tubulin was determined as 55.2%. In addition, in the assay with KB cell, the inhibition at 10 µM was 97.4%.
With `O=C(CCc1ccccc1)Nc1ncc(-c2ccc(F)cc2)cn1` [Compound 99, N-[5-(4-Fluoro-phenyl)-pyrimidin-2-yl]-3-phenyl-propionamide], the “Inhibition rate (%) (colchicine competitive-binding)” value in the assay with biotinylated tubulin came to 78.3%. The “Inhibition rate (%) of tubulin polymerization” value in the assay with porcine brain tubulin is 55.8%. Besides, in the assay with KB cell, the inhibition at 10 µM was 95.8%.
For `COc1cccc(-c2cnc(NC(=O)CCc3ccc(C)o3)nc2)c1OC` [Compound 100, N-[5-(2,3-Dimethoxy-phenyl)-pyrimidin-2-yl]-3-(5-methyl-furan-2-yl)-propionamide], in the assay with biotinylated tubulin, the “Inhibition rate (%) (colchicine competitive-binding)” value worked out at 83.4%. The “Inhibition rate (%) of tubulin polymerization” value in the assay with porcine brain tubulin amounted to 84.3%. Besides, in the assay with KB cell, the inhibition at 10 µM was 97.8%.
`COc1cccc(-c2cnc(NC(=O)CCc3ccccc3)nc2)c1OC` [Compound 102, N-[5-(2,3-Dimethoxy-phenyl)-pyrimidin-2-yl]-3-phenyl-propionamide]: in the assay with biotinylated tubulin, the “Inhibition rate (%) (colchicine competitive-binding)” value was found to be 59.2%. Besides, the “Inhibition rate (%) of tubulin polymerization” value with porcine brain tubulin worked out at 58.6%. Moreover, the inhibition at 10 µM in the assay on KB cell was 94.5%.
In the same order, the values of `Cc1ccc(CCC(=O)Nc2ncc(-c3ccc(F)cc3)cn2)o1` [Compound 105, N-[5-(4-Fluoro-phenyl)-pyrimidin-2-yl]-3-(5-methyl-furan-2-yl)-propionamide] are 99.3%, 72.2% and 96.7%.
For `Cc1ccc(CCC(=O)Nc2ncc(-c3ccc(N(C)C)cc3)cn2)o1` [Compound 106, N-[5-(4-Dimethylamino-phenyl)-pyrimidin-2-yl]-3-(5-methyl-furan-2-yl)-propionamide] the same measures were 70.1%, 69.3% and 84.6%.
For `Cc1ccc(CCC(=O)Nc2ccc(-c3ccccc3)cn2)o1` [Compound 111, 3-(5-Methyl-furan-2-yl)-N-(5-phenyl-pyridin-2-yl)-propionamide] the same measures were 96.4%, 72.7% and 65.1%.
As to `Cc1ccc(CCC(=O)Nc2ccc(-c3ccc(F)cc3)cn2)o1` [Compound 112, N-[5-(4-Fluoro-phenyl)-pyridin-2-yl]-3-(5-methyl-furan-2-yl)-propionamide], in the assay on biotinylated tubulin, the “Inhibition rate (%) (colchicine competitive-binding)” value was determined as 87.8%. Further, the “Inhibition rate (%) of tubulin polymerization” value in the assay with porcine brain tubulin came to 76.9%. Moreover, the inhibition at 10 µM with KB cell was 96.2%.
For `Cc1ccc(CCC(=O)Nc2ncc(-c3ccccc3)cc2C)o1` [Compound 118, 3-(5-Methyl-furan-2-yl)-N-(3-methyl-5-phenyl-pyridin-2-yl)-propionamide], the “Inhibition rate (%) (colchicine competitive-binding)” value in the assay with biotinylated tubulin came to 99.7%. Moreover, the “Inhibition rate (%) of tubulin polymerization” value with porcine brain tubulin came out at 81.4%. Besides, the inhibition at 10 µM with KB cell was 93%.
In the same order, the values of `Cc1ccc(CCC(=O)Nc2ncc(-c3ccc(N(C)C)cc3)cc2C)o1` [Compound 120, N-[5-(4-Dimethylamino-phenyl)-3-methyl-pyridin-2-yl]-3-(5-methyl-furan-2-yl)-propionamide] are 97.5%, 51.8% and 85.9%.
Regarding `Cc1ccc(CCC(=O)Nc2ccc(Br)cn2)o1` [Compound 123, N-(5-Bromo-pyridin-2-yl)-3-(5-methyl-furan-2-yl)-propionamide], the “Inhibition rate (%) (colchicine competitive-binding)” value in the assay with biotinylated tubulin turned out to be 78.4%. The “Inhibition rate (%) of tubulin polymerization” value in the assay on porcine brain tubulin came to 85.6%. Besides, the inhibition at 10 µM in the assay on KB cell worked out at 95.8%.
For `Cc1ccc(CCC(=O)Nc2ncc(Br)cc2C)o1` [Compound 124, N-(5-Bromo-3-methyl-pyridin-2-yl)-3-(5-methyl-furan-2-yl)-propionamide], in the assay with biotinylated tubulin, the “Inhibition rate (%) (colchicine competitive-binding)” value amounted to 74.8%. For the same molecule, the “Inhibition rate (%) of tubulin polymerization” value with porcine brain tubulin amounted to 84.9%. Also, the inhibition at 10 µM in the assay with KB cell stood at 93.3%.
